Results taken from patent US10526352B2, “Tricyclic benzoxaborole compounds and uses thereof” (GlaxoSmithKline Intellectual Property (No.2) Limited, priority 2013, dated 2020).

Tested on: M. tuberculosis clinical isolates
Experiment: MIC against clinical strains (BACTEC MGIT 960 System)
Type: cell-based
Settings: Mycobacterium tuberculosis
[1] = strain 123, resistant clinical isolate, resistance HSERZKTACp
[2] = strain 139, resistant clinical isolate, resistance HSERZKTACp
[3] = strain 141, resistant clinical isolate, resistance HRT
[4] = strain 167, resistant clinical isolate, resistance HSRZ
[5] = strain 175, resistant clinical isolate, resistance S
[6] = strain 198, resistant clinical isolate, resistance H
[7] = strain 242, resistant clinical isolate, resistance H
[8] = strain 330, resistant clinical isolate, resistance HSR (Tables 2B, 2D)
[9] = strain 1672, resistant clinical isolate, resistance HSRZ
[10] = strain 1819, resistant clinical isolate, resistance HSRZ

Compound | MIC [1] | MIC [2] | MIC [3] | MIC [4] | MIC [5] | MIC [6] | MIC [7] | MIC [8] | MIC [9] | MIC [10] | other results
Cl.NC[C@H]1OB2OCCOc3ccc(Br)c1c32 [Example 2, (S)-(3-bromo-7,8-dihydro-2H-1,6,9-trioxa-9a-borabenzo[cd]azulen-2-yl)methanamine hydrochloride] | 0.08 µM | 0.08 µM | 0.08 µM | 0.08 µM | 0.08 µM | 0.08 µM | 0.08 µM | 0.08 µM | 0.08 µM | 0.04 µM | 
Cl.NC[C@H]1OB2OCCOc3ccc(Cl)c1c32 [Example 4, (S)-(3-chloro-7,8-dihydro-2H-1,6,9-trioxa-9a-borabenzo[cd]azulen-2-yl)methanamine hydrochloride] | 0.16 µM | 0.08 µM | 0.08 µM | 0.08 µM | 0.08 µM | 0.08 µM | 0.08 µM | 0.08 µM | 0.08 µM | ≤ 0.02 µM | MIC (strain 106, resistant clinical isolate, resistance HR): 0.16 µM; MIC (strain 192, resistant clinical isolate, resistance HS): 0.31 µM; MIC (strain 201, resistant clinical isolate, resistance HRE): 0.08 µM; MIC (strain 202, resistant clinical isolate, resistance S): 0.08 µM; MIC (strain 254, resistant clinical isolate, resistance H): 0.16 µM; MIC (strain 277, resistant clinical isolate, resistance H): 0.08 µM; MIC (strain 297, resistant clinical isolate, resistance HSR): 0.16 µM; MIC (strain 330, resistant clinical isolate, resistance HS): 0.08 µM; MIC (strain 330, resistant clinical isolate, resistance RSR): 0.04 µM; MIC (strain 409, resistant clinical isolate, resistance HR): 0.08 µM; MIC (strain 415, resistant clinical isolate, resistance HRT): 0.08 µM; MIC (strain 514, resistant clinical isolate, resistance HSRT): 0.08 µM; MIC (strain 562, resistant clinical isolate, resistance HSERZKTA): 0.08 µM; MIC (strain 605, resistant clinical isolate, resistance HSERZACp): 0.16 µM; MIC (strain 670, resistant clinical isolate, resistance HRZ): 0.04 µM; MIC (strain 709, resistant clinical isolate, resistance S): 0.08 µM; MIC (strain 732, resistant clinical isolate, resistance S): 0.08 µM; MIC (strain CR, resistant clinical isolate, resistance HSERZ): 0.31 µM
NC[C@H]1OB2OCCOc3ccc(Cl)c1c32 [Example G4-Cl] |  |  |  |  |  |  |  |  |  |  | MIC (for more than 85 clinical isolate strains of 97 tested (sensitive and resistant)): < 1 µM
